Test results reported in US20250115591A1, “NOVEL SULFONAMIDE CARBOXAMIDE COMPOUNDS” (INFLAZOME LIMITED, priority 2017, published 2025).
Counter-ions that a name gives are not always drawn.

Assays:
NLRP3 [1] = target: T1, NLRP3 (Homo sapiens (Human), UniProt Q96P20); assay: Human whole blood IL1β release assay (LPS + nigericin); assay type: cell-based; conditions: human whole blood, 1 μg/ml LPS, nigericin, IL-1β release; read-out: HWB IC50
Procedure: For systemic delivery, the ability to inhibit NLRP3 when the compounds are present within the bloodstream is of great importance. For this reason, the NLRP3 inhibitory activity of a number of compounds in human whole blood was investigated in accordance with the following protocol.
Human whole blood in Li-heparin tubes was obtained from healthy donors from a volunteer donor panel. • 1. Plate out 80 μl of whole blood containing 1 μg/ml of LPS in 96-well, clear bottom cell culture plate (Corning #3585) • 2. Add 10 μl compound (8 points half-log dilution with 10 μM top dose) or vehicle (DMSO 0.1% FAC) to the appropriate wells • 3. Incubate for 3 hrs at 37° C., 5% CO2 • 4. Add 10 μl nigericin (Sigma #N7143) ([…]) to all wells • 5. Incubate for 1 hr at 37° C., 5% CO2 • 6. At the end of the incubation period, spin plates at 30×g for 5 mins to pellet cells and remove 20 μl of supernatant and add to 96-well v-bottom plates for IL-1β analysis (note: these plates containing the supernatants can be stored at −80° C. to be analysed at a later date) • 7. IL-1β was measured according to the manufacturer protocol (Perkin Elmer-AlphaLisa IL-Kit A[220F-5000) • 8. IC50 data is fitted to a non-linear regression equation (log inhibitor vs response-variable slope 4-parameters)

NLRP3 [2] = target: T1, NLRP3; assay: THP-1 cells pyroptosis assay (LPS + nigericin, resazurin read-out); assay type: cell-based; conditions: 1 μg/ml LPS, 5 μM nigericin
In short: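 LPS-primed (1 μg/ml) human THP-1 cells in serum-free RPMI were exposed to compound (8-point half-log series, top dose as printed "10M") for 3 h at 37 °C, then to nigericin 5 μM for 1 h. Remaining viability was read by resazurin (100 μM, 1-2 h) fluorescence, and IC50 came from 4-parameter variable-slope regression.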

T1 sequence (Q96P20 whole entry): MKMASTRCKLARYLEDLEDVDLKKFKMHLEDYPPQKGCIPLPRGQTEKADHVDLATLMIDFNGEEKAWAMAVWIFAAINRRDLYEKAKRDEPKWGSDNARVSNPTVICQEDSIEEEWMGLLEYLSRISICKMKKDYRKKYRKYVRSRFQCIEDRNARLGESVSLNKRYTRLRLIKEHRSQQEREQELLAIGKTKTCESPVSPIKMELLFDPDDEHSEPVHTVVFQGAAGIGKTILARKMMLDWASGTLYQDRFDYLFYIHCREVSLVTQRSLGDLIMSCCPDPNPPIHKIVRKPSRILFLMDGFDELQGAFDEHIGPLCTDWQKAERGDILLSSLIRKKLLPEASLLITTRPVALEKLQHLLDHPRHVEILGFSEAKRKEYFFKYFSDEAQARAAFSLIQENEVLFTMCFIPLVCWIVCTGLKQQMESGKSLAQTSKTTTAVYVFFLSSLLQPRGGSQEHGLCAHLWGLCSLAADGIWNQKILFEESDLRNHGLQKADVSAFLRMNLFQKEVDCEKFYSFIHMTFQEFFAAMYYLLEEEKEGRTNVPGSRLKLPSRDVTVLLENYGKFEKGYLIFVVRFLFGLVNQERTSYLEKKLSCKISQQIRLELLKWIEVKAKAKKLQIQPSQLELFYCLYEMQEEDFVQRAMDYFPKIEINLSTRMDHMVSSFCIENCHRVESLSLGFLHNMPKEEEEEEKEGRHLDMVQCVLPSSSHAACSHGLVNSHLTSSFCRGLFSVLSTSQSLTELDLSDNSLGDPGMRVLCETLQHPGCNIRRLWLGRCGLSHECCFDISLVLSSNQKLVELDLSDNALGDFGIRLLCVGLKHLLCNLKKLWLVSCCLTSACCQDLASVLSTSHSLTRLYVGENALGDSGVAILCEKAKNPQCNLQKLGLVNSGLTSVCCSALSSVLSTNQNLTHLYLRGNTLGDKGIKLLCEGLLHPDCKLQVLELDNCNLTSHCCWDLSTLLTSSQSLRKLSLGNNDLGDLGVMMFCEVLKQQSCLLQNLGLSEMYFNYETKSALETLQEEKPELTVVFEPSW

| SMILES | IC50 (NLRP3 [1]) [nM] | IC50 (NLRP3 [2]) [nM] |
| --- | --- | --- |
| O=C(Nc1c2c(cc3c1CCC3)CCC2)NS(=O)(=O)C1CN(CC2CCC2)C1 [Example 126, 1-(Cyclobutylmethyl)-N-((1,2,3,5,6,7-hexahydro-s-indacen-4-yl)carbamoyl)azetidine-3-sulfonamide, potassium salt] | 1000 to 10000 | 1000 to 10000 |
| O=C(Nc1c2c(cc3c1CCC3)CCC2)NS(=O)(=O)C1CN(C2CCOCC2)C1 [Example 75, N-((1,2,3,5,6,7-Hexahydro-s-indacen-4-yl)carbamoyl)-1-(tetrahydro-2H-pyran-4-yl)azetidine-3-sulfonamide, potassium salt] | < 1000 | < 1000 |
| COc1cc(-c2ccc3c(c2NC(=O)NS(=O)(=O)C2CN(C4CCC4)C2)CCC3)ccn1 [Example 163, 1-Cyclobutyl-N-((5-(2-methoxypyridin-4-yl)-2,3-dihydro-1H-inden-4-yl)carbamoyl)azetidine-3-sulfonamide] | < 1000 | < 1000 |
| CC(C)NC(=O)N1CCC(S(=O)(=O)NC(=O)Nc2c3c(cc4c2CCC4)CCC3)CC1 [Example 5, 4-(N-((1,2,3,5,6,7-Hexahydro-s-indacen-4-yl)carbamoyl)sulfamoyl)-N-isopropylpiperidine-1-carboxamide, potassium salt] | 1000 to 10000 | < 1000 |
| CC(C)n1cc(S(=O)(=O)NC(=O)Nc2c3c(cc4c2CCC4)CCC3)ncc1=O [Example 181, N-((1,2,3,5,6,7-Hexahydro-s-indacen-4-yl)carbamoyl)-4-isopropyl-5-oxo-4,5-dihydropyrazine-2-sulfonamide, sodium salt] | < 1000 | < 1000 |
| CCC(=O)N1CCCC(S(=O)(=O)NC(=O)Nc2c3c(cc4c2CCC4)CCC3)C1 (centres unmarked) [Example 32, N-((1,2,3,5,6,7-Hexahydro-s-indacen-4-yl)carbamoyl)-1-propionylpiperidine-3-sulfonamide, potassium salt] | 1000 to 10000 | 1000 to 10000 |
| CN1CC(S(=O)(=O)NC(=O)Nc2c3c(cc4c2CCC4)CCC3)C1 [Example 49, N-((1,2,3,5,6,7-Hexahydro-s-indacen-4-yl)carbamoyl)-1-methylazetidine-3-sulfonamide, potassium salt] | < 1000 | < 1000 |
| O=C(Nc1c2c(cc3c1CCC3)CCC2)NS(=O)(=O)C1CCCN(CCF)C1 (centres unmarked) [Example 34, 1-(2-Fluoroethyl)-N-((1,2,3,5,6,7-hexahydro-s-indacen-4-yl)carbamoyl)piperidine-3-sulfonamide, potassium salt] | 1000 to 10000 | < 1000 |
| COc1cc(-c2ccc3c(c2NC(=O)NS(=O)(=O)C2CN(Cc4cccnc4)C2)CCC3)ccn1 [Example 170, N-((5-(2-Methoxypyridin-4-yl)-2,3-dihydro-1H-inden-4-yl)carbamoyl)-1-(pyridin-3-ylmethyl)azetidine-3-sulfonamide] | 1000 to 10000 | 1000 to 10000 |
| COc1cc(-c2cc(F)cc(C(C)C)c2NC(=O)NS(=O)(=O)C2CN(C(C)C)C2)ccn1 [Example 158, N-((4-Fluoro-2-isopropyl-6-(2-methoxypyridin-4-yl)phenyl)carbamoyl)-1-isopropylazetidine-3-sulfonamide] | < 1000 | < 1000 |
| O=C(Nc1c2c(cc3c1CCC3)CCC2)NS(=O)(=O)C1CN(Cc2ccncc2)C1 [Example 103, N-((1,2,3,5,6,7-Hexahydro-s-indacen-4-yl)carbamoyl)-1-(pyridin-4-ylmethyl)azetidine-3-sulfonamide, potassium salt] | 1000 to 10000 | < 1000 |
| O=C(Nc1c2c(cc3c1CCC3)CCC2)NS(=O)(=O)C1CN(C2CCOC2)C1 (centres unmarked) [Example 121, N-((1,2,3,5,6,7-Hexahydro-s-indacen-4-yl)carbamoyl)-1-(tetrahydrofuran-3-yl)azetidine-3-sulfonamide, potassium salt] | < 1000 | < 1000 |
| CCN1CC(S(=O)(=O)NC(=O)Nc2c3c(cc4c2CCC4)CCC3)C1 [Example 53, 1-Ethyl-N-((1,2,3,5,6,7-hexahydro-s-indacen-4-yl)carbamoyl) azetidine-3-sulfonamide, potassium salt] | < 1000 | < 1000 |
| CC(C(F)F)N1CC(S(=O)(=O)NC(=O)Nc2c3c(cc4c2CCC4)CCC3)C1 (centres unmarked) [Example 131, 1-(1,1-Difluoropropan-2-yl)-N-((1,2,3,5,6,7-hexahydro-s-indacen-4-yl)carbamoyl)azetidine-3-sulfonamide, potassium salt] | 1000 to 10000 | < 1000 |
| O=C(Nc1c2c(cc3c1CCC3)CCC2)NS(=O)(=O)C1CCNCC1 [Example 4, N-((1,2,3,5,6,7-Hexahydro-s-indacen-4-yl)carbamoyl)-piperidine-4-sulfonamide, potassium salt] | 1000 to 10000 | 1000 to 10000 |
| CCC(CC)N1CC(S(=O)(=O)NC(=O)Nc2c3c(cc4c2CCC4)CCC3)C1 [Example 65, N-((1,2,3,5,6,7-Hexahydro-s-indacen-4-yl)carbamoyl)-1-(pentan-3-yl)azetidine-3-sulfonamide, potassium salt] | < 1000 | < 1000 |
| CC1(C)CCC1N1CC(S(=O)(=O)NC(=O)Nc2c3c(cc4c2CCC4)CCC3)C1 (centres unmarked) [Example 124, 1-(2,2-Dimethylcyclobutyl)-N-((1,2,3,5,6,7-hexahydro-s-indacen-4-yl)carbamoyl)azetidine-3-sulfonamide, potassium salt] | 1000 to 10000 | < 1000 |
| O=C(Nc1c2c(cc3c1CCC3)CCC2)NS(=O)(=O)C1CN(CC2CCOC2)C1 (centres unmarked) [Example 144, N-((1,2,3,5,6,7-Hexahydro-s-indacen-4-yl)carbamoyl)-1-((tetrahydrofuran-3-yl)methyl)azetidine-3-sulfonamide, potassium salt] | 1000 to 10000 | < 1000 |
| Cn1ccc(CN2CC(S(=O)(=O)NC(=O)Nc3c4c(cc5c3CCC5)CCC4)C2)cc1=O [Example 141, N-((1,2,3,5,6,7-Hexahydro-s-indacen-4-yl)carbamoyl)-1-((1-methyl-2-oxo-1,2-dihydropyridin-4-yl)methyl)azetidine-3-sulfonamide, potassium salt] | 1000 to 10000 | < 1000 |
| COc1cc(-c2cc(F)cc(C(C)C)c2NC(=O)NS(=O)(=O)C2CN(C3CCC3)C2)ccn1 [Example 162, 1-Cyclobutyl-N-((4-fluoro-2-isopropyl-6-(2-methoxypyridin-4-yl)phenyl)carbamoyl)azetidine-3-sulfonamide] | < 1000 | < 1000 |
| CC(C)(C)CN1CC(S(=O)(=O)NC(=O)Nc2c3c(cc4c2CCC4)CCC3)C1 [Example 135, N-((1,2,3,5,6,7-Hexahydro-s-indacen-4-yl)carbamoyl)-1-neopentylazetidine-3-sulfonamide, potassium salt] | 1000 to 10000 | < 1000 |
| CCC(C)N1CC(S(=O)(=O)NC(=O)Nc2c3c(cc4c2CCC4)CCC3)C1 (centres unmarked) [Example 122, 1-(sec-Butyl)-N-((1,2,3,5,6,7-hexahydro-s-indacen-4-yl)carbamoyl)azetidine-3-sulfonamide, potassium salt] | < 1000 | < 1000 |
| O=C(Nc1c2c(cc3c1CCC3)CCC2)NS(=O)(=O)C1CN(Cc2cccnc2Br)C1 [Example 105, 1-((2-Bromopyridin-3-yl)methyl)-N-((1,2,3,5,6,7-hexahydro-s-indacen-4-yl)carbamoyl)azetidine-3-sulfonamide, potassium salt] | > 10000 | < 1000 |
| O=C(Nc1c2c(cc3c1CCC3)CCC2)NS(=O)(=O)C1CN(CC2CCCO2)C1 (centres unmarked) [Example 145, N-((1,2,3,5,6,7-Hexahydro-s-indacen-4-yl)carbamoyl)-1-((tetrahydrofuran-2-yl)methyl)azetidine-3-sulfonamide, potassium salt] | 1000 to 10000 | < 1000 |
| CC(O)CN1CC(S(=O)(=O)NC(=O)Nc2c3c(cc4c2CCC4)CCC3)C1 (centres unmarked) [Example 137, N-((1,2,3,5,6,7-Hexahydro-s-indacen-4-yl)carbamoyl)-1-(2-hydroxypropyl)azetidine-3-sulfonamide, potassium salt] | 1000 to 10000 | < 1000 |
| CC(C)CN1CC(S(=O)(=O)NC(=O)Nc2c3c(cc4c2CCC4)CCC3)C1 [Example 97, N-((1,2,3,5,6,7-Hexahydro-s-indacen-4-yl)carbamoyl)-1-isobutylazetidine-3-sulfonamide, potassium salt] | < 1000 | < 1000 |
| O=C(Nc1c2c(cc3c1CCC3)CCC2)NS(=O)(=O)C1CCN(C(=O)C2CC2)CC1 [Example 7, 1-(Cyclopropanecarbonyl)-N-((1,2,3,5,6,7-hexahydro-s-indacen-4-yl)carbamoyl)piperidine-4-sulfonamide, potassium salt] | 1000 to 10000 | < 1000 |
| O=C(Nc1c2c(cc3c1CCC3)CCC2)NS(=O)(=O)C1CCN(C2CC2)C1 (centres unmarked) [Example 39, 1-Cyclopropyl-N-((1,2,3,5,6,7-hexahydro-s-indacen-4-yl)carbamoyl)pyrrolidine-3-sulfonamide, potassium salt] | 1000 to 10000 | < 1000 |
